Results taken from patent US20130190370A1, “Novel Tetrahydronaphalene Antagonists to the Thromboxane A2 (TP) Receptor” (The Trustees of the University of Pennsylvania, priority 2010, published 2013).

Legend:
[1] = Unbound fractions in plasma and brain homogenates by equilibrium dialysis; type: in vitro ADME
Text: Without wishing to be bound by any particular theory, it is believed that it is possible (although uncommon) for a BBB-permeable compound to have a very low B/P ratio if the fraction of free, unbound drug is much greater in the […]. More specifically, a drug that is freely diffusible across the BBB will at equilibrium have a free drug B/P ratio (B/Pfree)=1, where B/Pfree=B/P×fu(brain))/fu(plasma) (Maurer, et al., 2005, Drug Metab Dispos. 33:175-181; Kalvasset al., 2007, Drug Metab Dispos. 35:660-666) and fti represents unbound drug fractions. […] To ensure that the low B/P ratios obtained with the TP antagonists of Table 1 were truly reflective of poor BBB permeability, the unbound fractions in plasma and brain homogenates were measured using established equilibrium dialysis methods (Maurer, et al., 2005, Drug Metab Dispos. 33:175-181; Kalvasset al., 2007, Drug Metab Dispos. 35:660-666; Friden, et al., 2007, Drug Metab Dispos. 35:1711-1719). […] This is further illustrated by comparing the calculated B/Pfree ratios (Table 1), which are <<1. Because the existing repertoire of TP receptor antagonists share common structural features, including free carboxylate moieties, it is highly unlikely that any of these existing compounds would be sufficiently brain-penetrant to be potential AD therapeutics.

[2] = Brain and plasma compound levels by LC-MS/MS after 5 mg/kg i.p. injection into mice
Experimental: One-month old B6C3HF1 female mice were given intraperitoneal injections of compounds at 5 mg/kg. 1 hour after injection, mice were lethally anesthetized with an intraperitoneal injection of ketamine hydrochloride (1 mg/10 g) and xylazine (0.1 mg/10 g) and perfused intracardially with PBS in accordance with protocols approved by the University of Pennsylvania.
Brain samples were homogenized in 10 mM ammonium acetate, pH 5.7 (1:2; w/v) using a handheld sonic homogenizer. Compound from 50 μL of brain homogenate or plasma was extracted with 200 μL acetonitrile, centrifuged, and the supernatant removed for LC/MS/MS analysis. Compounds were detected using multiple reaction monitoring (MRM) of their specific collision-induced ion transitions and quantified using peak areas.
The LC/MS/MS system was comprised of an Agility UPLC, a TQ MS, and controlled using MassLynx software (Waters Corporation, Milford, Mass., USA). Samples were separated on an Aquity BEH C18 column (1.7 μm, 2.1×50 mm) at 35° C. For operation in positive electrospray ionization mode, the mobile phase A was 0.1% (v/v) formic acid, and B was either acetonitrile or methanol with 0.1% (v/v) formic acid. For operation in negative electrospray ionization mode, the mobile phase A was 10 mM ammonium acetate, and B was methanol with 10 mM ammonium acetate, Injections of 5 μL were separated at a flow rate of 0.6 mL/min using a gradient from 5% to 95% B over two minutes followed by wash and re-equilibration steps.
The MS was operated with a desolvation temperature of 450° C. and a source temperature of 150° C. Desolvation and source nitrogen gas flows were 900 L/hr and 50 L/hr, respectively. Collision cell argon gas flow was 0.1 mL/min. Source and analyzer voltages were optimized for each compound using the MassLynx auto tune utility. Compound standards at 1000 ng/mL in 50% acetonitrile were infused at 30 μL/min and combined with flow from the UPLC at 0.6 mL/min and 50% B.
Standard curves were generated from spiked brain homogenate and plasma prepared at 4, 40, 400 and 4000 ng/mL and extracted as above. Peak area was plotted versus concentration and a 1/x weighted linear regression curve was used to quantify the unknowns using the average peak area from triplicate injections,
The following experiments were designed to analyze TP receptor antagonists to determine their relative BBB penetration. The TP receptor antagonists were administered via i.p. injection at 5 mg/kg to normal mice, and brain and plasma compound concentrations were assessed by LC-MS/MS at 1 and 4 hours after dosing.
To examine the blood-brain barrier permeability of these compounds, one-month old B6C3F1 mice were injected at 5 mg/kg and sacrificed 1 hour after injection.

human TP receptor = target: T1, human TP receptor (Homo sapiens, UniProt P21731); assay: Radioligand binding assay (3H-SQ29,548), human TP receptor; conditions: hTP receptor
T1 construct: expressed in transfected cells
T1 sequence (P21731 1-343): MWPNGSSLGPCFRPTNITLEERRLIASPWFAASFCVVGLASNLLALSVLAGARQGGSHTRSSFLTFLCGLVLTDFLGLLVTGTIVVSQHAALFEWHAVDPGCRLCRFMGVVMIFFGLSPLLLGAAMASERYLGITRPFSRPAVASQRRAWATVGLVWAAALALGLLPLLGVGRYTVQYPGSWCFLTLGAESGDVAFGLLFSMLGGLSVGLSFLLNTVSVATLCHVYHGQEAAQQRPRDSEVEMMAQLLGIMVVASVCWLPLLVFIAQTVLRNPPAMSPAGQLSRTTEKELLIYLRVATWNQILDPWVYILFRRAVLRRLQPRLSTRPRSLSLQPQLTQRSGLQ
Experimental: (§1) QBI-HEK 293A cells expressing human or mouse TxA2 (TP) receptor were grown as described previously and harvested in phosphate-buffered saline with 1 mM EDTA. The cell pellet was homogenized in a glass homogenizer in 20 mM Hepes, 1 mM EGTA, 0.5 mM DTT with protease inhibitor cocktail. The homogenate was initially centrifuged at 1000×g for 10 minutes at 8° C. to remove cell debris. The homogenate was then centrifuged in a Beckman L8-70M ultracentrifuge (Beckman-Coulter, Brea, Calif., USA) at 21,000 rpm for 30 minutes at 4° C., and the pellet was resuspended in 20 mM Hepes, 1 mM EGTA, 100 mM NaCl. Membrane preparations were normalized to protein level as determined with a BCA assay (ThermoFisher, Rockland, Ill.) and stored at −80° C.
(§2) Test antagonists were incubated at 10 different concentrations with 25 μg membrane and 25 nM ^3H-SQ29,548 (PerkinElmer, Waltham, Mass., USA) in 50 mM Tris, 4 mM CaCl2, 0.1% ascorbic acid pH 7.5 for 2 hours at 25° C. in 96-well polystyrene plates. Separation of bound from free radioligand was accomplished by rapid vacuum filtration onto 96-well GF/B filter plates (PerkinElmer, Waltham, Mass., USA). Filters were washed 8 times in 50 mM Tris, pH 6.9 and allowed to dry for 16 hours, Plates were sealed and filters dissolved in 50 μL Betaplate Scintillation fluid (PerkinElmer, Waltham, Mass., USA) and read on a scintillation counter. Data are presented as percent total binding as calculated by a minimum of 3 wells containing membrane and ^3H-SQ29,548 without antagonist.
(§3) Equilibrium dissociation constants (Kd), IC50, and Schild regression analyses was performed with GraphPad Prism software (GraphPad Software Inc., La Jolla, Calif., USA).
(§4) To facilitate the characterization of the new compounds, cell-based TP receptor functional assays were optimized. HEK293 clones have been produced that stably express the human (hTP) or mouse (mTP) TP receptor (a isoform), and treatment of these clones with I-BOP ([1S-[1α,2α(Z),3β(1E,3S*),4α]]-7-[3-[3-hydroxy-4-(4-iodophenoxy)-1-butenyl]-7-oxabicyclo[2.2.1]hept-2-yl]-5-heptenoic acid) results in increased production of inositol triphosphate (IP3) (Knezevic, et al., 1993, Blood 82:A156; Shenker, et al., 1991, J Biol Chem 266:9309-9313; Huang, et al., 2004, Cell Signal 16:521-533) which can be quantified by measuring the breakdown product, inositol monophosphates (IP1), using a commercial time-resolved fluorescence assay. […] A radioligand binding assay was also developed to allow for the determination of binding affinities of compounds at the hTP and mTP receptors.

[3] = Pro-drug study: plasma levels of compound and carboxylic acid hydrolysis product (51280) by LC-MS/MS; type: in vivo; conditions: female mice, 5 mg/kg, 1 h after injection
Experimental: Ester and amide examples can serve as pro-drugs to release the potent carboxylic acid TP receptor antagonist CNDR-51280. Compounds in were administered at 5 mg/kg to female mice, and levels of the compound and the carboxylic acid hydrolysis product (51280) were evaluated by LC-MS/MS 1 h after injection (Table 3).

mouse TP receptor = target: T2, mouse TP receptor (Mus musculus, UniProt P30987); assay: Radioligand binding assay (3H-SQ29,548), mouse TP receptor; conditions: mTP receptor
T2 construct: expressed in transfected cells
T2 sequence (P30987 1-341): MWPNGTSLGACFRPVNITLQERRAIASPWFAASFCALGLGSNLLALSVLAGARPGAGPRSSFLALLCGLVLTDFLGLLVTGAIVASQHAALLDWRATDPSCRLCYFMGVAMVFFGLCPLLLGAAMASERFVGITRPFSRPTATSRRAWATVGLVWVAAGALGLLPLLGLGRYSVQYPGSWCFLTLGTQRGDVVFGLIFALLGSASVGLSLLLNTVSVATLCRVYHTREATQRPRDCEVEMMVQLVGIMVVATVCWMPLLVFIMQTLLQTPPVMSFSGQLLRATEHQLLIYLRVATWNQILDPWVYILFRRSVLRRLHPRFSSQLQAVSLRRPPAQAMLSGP
Experimental: as §1, §2, §3, §4

[4] = female, B6C3HF1, mouse, brain/plasma (unbound), ip, 5 mg/kg
[5] = female, B6C3HF1, mouse, brain/plasma, ip, 5 mg/kg
[6] = mice, 5 mg/kg i.p., 1 h after dosing
[7] = mice, 5 mg/kg i.p., 4 h after dosing

Structure (SMILES): O=C(O)Cc1ccc(CCNS(=O)(=O)c2ccc(Cl)cc2)cc1 [Daltroban]
- fraction unbound ([1]; brain homogenate, equilibrium dialysis, read-out: fu(brain) (fraction unbound)): 0.221
- plasma/brain unbound fraction ratio ([1]; plasma and brain homogenate, ratio of unbound fractions plasma/brain, read-out: fu(pl)/fu(br)): 0.52
- concentration at 1 h ([2]; female, B6C3HF1, mouse, brain, ip, 5 mg/kg, Brain, mice, 5 mg/kg i.p., 1 h after dosing): 133 ng/mL
- concentration at 4 h ([2]; female, B6C3HF1, mouse, brain, ip, 5 mg/kg, Brain, mice, 5 mg/kg i.p., 4 h after dosing): 55.9 ng/mL
- Kp at 1 h [2, 4]: 0.04
- Kp at 4 h [2, 4]: 0.06
- Kp at 1 h [2, 5]: 0.02
- Kp at 4 h [2, 5]: 0.03
- concentration at 1 h ([2]; female, B6C3HF1, mouse, plasma, ip, 5 mg/kg, Plasma, mice, 5 mg/kg i.p., 1 h after dosing): 6450 ng/mL
- concentration at 4 h ([2]; female, B6C3HF1, mouse, plasma, ip, 5 mg/kg, Plasma, mice, 5 mg/kg i.p., 4 h after dosing): 1790 ng/mL

Structure (SMILES): CCCCCNC(=O)NS(=O)(=O)c1cc([N+](=O)[O-])ccc1NC1CCCCC1 [BM567]
- fu(plasma) (fraction unbound) ([1]; plasma, equilibrium dialysis): 0.004 +/− 0.001
- fu(pl)/fu(br) ([1]; ratio of unbound fractions plasma/brain): 0.20
- B/P (brain-to-plasma ratio) ([2]; mice, 5 mg/kg i.p., 1 h): 0.01
- Brain [2, 6]: 40.2 ± 12.3 ng/mL
- Plasma [2, 6]: 3600 ± 923 ng/mL
- B/P (brain-to-plasma ratio) ([2]; mice, 5 mg/kg i.p., 4 h): 0.01
- Brain [2, 7]: 18.5 ± 7.8 ng/mL
- Plasma [2, 7]: 2248 ± 1400 ng/mL

Structure (SMILES): O=C(CCc1cccc2c1CCC(NS(=O)(=O)c1ccc(Cl)cc1)C2)NCC(F)(F)F (centres unmarked) [Compound 51418, 3-(6-(4-Chlorophenylsullfonamido)-5,6,7,8-tetrahydronaphthalen-1-yl)-N-(2,2,2-trifluoroethyl)-propanamide]
- affinity for TP receptor (human TP receptor): most tolerable substitutions
- Plasma (compound) [3]: 109 (+/− 45) nM
- XCOOH Plasma (carboxylic acid hydrolysis product 51280) [3]: 100 (+/− 43) nM
- affinity for TP receptor (mouse TP receptor): most tolerable substitutions

Structure (SMILES): O=S(=O)(NC1CCc2c(CCc3nn[nH]n3)cccc2C1)c1ccc(Cl)cc1 (centres unmarked) [Compound 51279, N-(5-(2-(2H-Tetrazol-5-yl)ethyl)-1,2,3,4-tetrahydronaphthalen-2-yl)-4-chlorobenzenesulfonamide]
- affinity for TP receptor (human TP receptor): most tolerable substitutions
- affinity for TP receptor (human TP receptor; listed as CNDR-51279): well tolerated
- brain penetration / brain levels of the drug ([2]; B6C3F1 mice, 5 mg/kg, 1 hour after injection): very little brain penetration
- affinity for TP receptor (mouse TP receptor): most tolerable substitutions
- affinity for TP receptor (mouse TP receptor; listed as CNDR-51279): well tolerated

Structure (SMILES): O=S(=O)(NC1CCc2c(CCC3OCCO3)cccc2C1)c1ccc(Cl)cc1 (centres unmarked) [Compound 51414]
- brain penetration / brain levels of the drug ([2]; B6C3F1 mice, 5 mg/kg, 1 hour after injection; 5 mg/kg): greatly increased brain levels of the drug
- brain penetration / brain levels of the drug ([2]; B6C3F1 mice, 5 mg/kg, 1 hour after injection; listed as CNDR-51414, 5 mg/kg): brain-penetrant
